Laboratory results from patent US11292807B2 (OCEANS LTD., priority 2015, dated 2022).
Where two headings read alike, the source gives them in different places.

Columns and labels:
[1] = test system: MDA-MB; details: MDA-MB
[2] = test system: U373 (glioblastoma-astrocytoma); test: CIMA assay, cell viability, U373; details: for Fold change in viability AVG: U373
[3] = test system: PC3; test: CIMA assay, cell viability, PC3; details: for Fold change in viability AVG: PC3
[4] = test system: THP-1 (acute monocytic leukemia); test: CIMA assay, cell viability, THP-1; details: for Fold change in viability AVG: THP-1
[5] = test system: SKOV3 (ovarian adenocarcinoma); test: CIMA assay, cell viability, SKOV3; details: for Fold change in viability AVG: SKOV
[6] = test system: MDA-MB; test: cells; details: Homo sapiens, read-out: Average cell viability, MDA-MB
[7] = in vitro; details: human, Average cell viability
[8] = test system: A549 (lung carcinoma); test: CIMA assay (colorimetric indicator of metabolic activity), cell viability, A549; details: for Fold change in viability AVG: A549
Description: Stock solutions of the extracts were prepared in dimethylsulfoxide (DMSO) at 10 mg/mL and stored in 200 μl aliquots at −20° C. until analysis. This preparation ensured that the DMSO delivered to cells in culture never exceeded 1%.
Prepared extracts were assessed following chronic exposure conditions in which cells were seeded at 2×10^3 cells/well (96 well-plate) and incubated with test compounds for 72 h. Each compound was evaluated over a range of concentrations (0, 10, 25, 50 or 100 μg/ml). Cell proliferation was initially assessed using a standard colorimetric indicator of metabolic activity (CIMA) assay. In this assay, tetrazole reduction was evaluated as a measure of metabolic function that evaluates mitochondrial activity to determine the extent of cell proliferation within a culture. This assay is based on the reduction of yellow tetrazolium salt to purple formazan by mitochondrial reductases enzyme in viable cells, resulting in a color changed that confers a change in absorbance.

[9] = test system: CCD1079SK (fibroblast, noncancerous but proliferating); test: CIMA assay, cell viability, CCD1079SK; details: CCD

SMILES: CC/C=C\C/C=C\C/C=C\CCCCCCCC(=O)O [Compound 19, α-linolenic acid]
- MDA-MB AVG ([1]; sample at 1 ug/mL): 1.17
- MDA-MB AVG ([1]; sample at 10 ug/mL): 1.18
- MDA-MB AVG ([1]; sample at 50 ug/mL): 0.88
- MDA-MB AVG ([1]; sample at 100 ug/mL): 0.26
- Fold change in viability AVG ([1]; 1 ug/mL): 1.17
- Fold change in viability AVG ([1]; 10 ug/mL): 1.18
- Fold change in viability AVG ([1]; 50 ug/mL): 0.88
- Fold change in viability AVG ([1]; 100 ug/mL): 0.26
- viability at 1 µg/mL ([2]; Homo sapiens, U373 MG, read-out: Average cell viability, U373, 1 ug/mL): 116%
- viability at 10 µg/mL ([2]; Homo sapiens, U373 MG, read-out: Average cell viability, U373, 10 ug/mL): 108%
- viability at 50 µg/mL ([2]; Homo sapiens, U373 MG, read-out: Average cell viability, U373, 50 ug/mL): 57%
- viability at 100 µg/mL ([2]; Homo sapiens, U373 MG, read-out: Average cell viability, U373, 100 ug/mL): 10%
- U373 AVG ([2]; U373, sample at 1 ug/mL): 1.18
- U373 AVG ([2]; U373, sample at 10 ug/mL): 1.10
- U373 AVG ([2]; U373, sample at 50 ug/mL): 0.58
- U373 AVG ([2]; U373, sample at 100 ug/mL): 0.10
- Fold change in viability AVG ([2]; 1 ug/mL): 1.18
- Fold change in viability AVG ([2]; 10 ug/mL): 1.10
- Fold change in viability AVG ([2]; 50 ug/mL): 0.58
- Fold change in viability AVG ([2]; 100 ug/mL): 0.10
- viability at 1 µg/mL ([3]; Homo sapiens, PC-3, read-out: Average cell viability, PC3, 1 ug/mL): 105%
- viability at 10 µg/mL ([3]; Homo sapiens, PC-3, read-out: Average cell viability, PC3, 10 ug/mL): 103%
- viability at 50 µg/mL ([3]; Homo sapiens, PC-3, read-out: Average cell viability, PC3, 50 ug/mL): 88%
- viability at 100 µg/mL ([3]; Homo sapiens, PC-3, read-out: Average cell viability, PC3, 100 ug/mL): 11%
- PC3 AVG ([3]; PC3, sample at 1 ug/mL): 1.09
- PC3 AVG ([3]; PC3, sample at 10 ug/mL): 1.07
- PC3 AVG ([3]; PC3, sample at 50 ug/mL): 0.91
- PC3 AVG ([3]; PC3, sample at 100 ug/mL): 0.12
- Fold change in viability AVG ([3]; 1 ug/mL): 1.09
- Fold change in viability AVG ([3]; 10 ug/mL): 1.07
- Fold change in viability AVG ([3]; 50 ug/mL): 0.91
- Fold change in viability AVG ([3]; 100 ug/mL): 0.12
- viability at 1 µg/mL ([4]; Homo sapiens, THP-1, read-out: Average cell viability, THP-1, 1 ug/mL): 102%
- viability at 10 µg/mL ([4]; Homo sapiens, THP-1, read-out: Average cell viability, THP-1, 10 ug/mL): 99%
- viability at 50 µg/mL ([4]; Homo sapiens, THP-1, read-out: Average cell viability, THP-1, 50 ug/mL): 72%
- viability at 100 µg/mL ([4]; Homo sapiens, THP-1, read-out: Average cell viability, THP-1, 100 ug/mL): 31%
- THP-1 AVG ([4]; THP-1, sample at 1 ug/mL): 1.16
- THP-1 AVG ([4]; THP-1, sample at 10 ug/mL): 1.12
- THP-1 AVG ([4]; THP-1, sample at 50 ug/mL): 0.82
- THP-1 AVG ([4]; THP-1, sample at 100 ug/mL): 0.35
- Fold change in viability AVG ([4]; 1 ug/mL): 1.16
- Fold change in viability AVG ([4]; 10 ug/mL): 1.12
- Fold change in viability AVG ([4]; 50 ug/mL): 0.82
- Fold change in viability AVG ([4]; 100 ug/mL): 0.35
- viability at 1 µg/mL ([5]; Homo sapiens, SK-OV-3, read-out: Average cell viability, SKOV, 1 ug/mL): 117%
- viability at 10 µg/mL ([5]; Homo sapiens, SK-OV-3, read-out: Average cell viability, SKOV, 10 ug/mL): 111%
- viability at 50 µg/mL ([5]; Homo sapiens, SK-OV-3, read-out: Average cell viability, SKOV, 50 ug/mL): 101%
- viability at 100 µg/mL ([5]; Homo sapiens, SK-OV-3, read-out: Average cell viability, SKOV, 100 ug/mL): 83%
- Fold change in viability AVG ([5]; 1 ug/mL): 1.26
- Fold change in viability AVG ([5]; 10 ug/mL): 1.20
- Fold change in viability AVG ([5]; 50 ug/mL): 1.09
- Fold change in viability AVG ([5]; 100 ug/mL): 0.90
- viability at 1 µg/mL ([6]; 1 ug/mL): 108%
- viability at 10 µg/mL ([6]; 10 ug/mL): 108%
- viability at 50 µg/mL ([6]; 50 ug/mL): 81%
- viability at 100 µg/mL ([6]; 100 ug/mL): 24%
- viability at 72 h, 1 ug/mL [7]: 109%
- viability at 72 h, 10 ug/mL [7]: 105%
- viability at 72 h, 50 ug/mL [7]: 77%
- viability at 72 h, 100 ug/mL [7]: 21%
- A549 AVG ([8]; A549, sample at 1 ug/mL): 1.16
- A549 AVG ([8]; A549, sample at 10 ug/mL): 1.16
- A549 AVG ([8]; A549, sample at 50 ug/mL): 1.02
- A549 AVG ([8]; A549, sample at 100 ug/mL): 0.67
- Fold change in viability AVG ([8]; 1 ug/mL): 1.16
- Fold change in viability AVG ([8]; 10 ug/mL): 1.16
- Fold change in viability AVG ([8]; 50 ug/mL): 1.02
- Fold change in viability AVG ([8]; 100 ug/mL): 0.67
- viability at 1 µg/mL ([8]; Homo sapiens, A549, read-out: Average cell viability, A549, 1 ug/mL): 99%
- viability at 10 µg/mL ([8]; Homo sapiens, A549, read-out: Average cell viability, A549, 10 ug/mL): 100%
- viability at 50 µg/mL ([8]; Homo sapiens, A549, read-out: Average cell viability, A549, 50 ug/mL): 88%
- viability at 100 µg/mL ([8]; Homo sapiens, A549, read-out: Average cell viability, A549, 100 ug/mL): 57%
- Fold change in viability AVG ([9]; 1 ug/mL): 1.20
- Fold change in viability AVG ([9]; 10 ug/mL): 1.16
- Fold change in viability AVG ([9]; 50 ug/mL): 0.85
- Fold change in viability AVG ([9]; 100 ug/mL): 0.23
